# Assay results as given in patent US20260263485A1, “AMINOSTEROL COMPOUNDS, AMINOSTEROL-CYCLODEXTRIN FORMULATIONS, AND METHODS OF USING THE SAME” (Enterin, Inc., priority 2022, published 2026).
# “And” between values parts separate entries of the source, which are not always exact repeats. Equal entries are not always repeated. Where two headings read alike, the source gives them in different places.
# Columns and labels:
# [1] = Plasma pharmacokinetics of ENT-03S cyclodextrin formulation after subcutaneous injection; type: in vivo, rat; conditions: male, Sprague-Dawley, rat, plasma, sc, 10 mg/kg, 20% beta-cyclodextrin formulation, SC Dose 10 mg/kg, male SD rats, plasma
# Procedure: In this example, ENT-03S was formulated with unmodified beta-cyclodextrin at a concentration of 25 mg/ml ENT-03, and 20% beta-cyclodextrin, pH 7.5, buffered with phosphate.
# Male Sprague-Dawley rats were administered the ENT-03-cyclodextrin formulation subcutaneous at a dose of 10 mg/kg. Blood samples were drawn from the tail vein at various times, the concentrations of ENT-03 determined, and PK parameters determined.
# [2] = Plasma pharmacokinetics of aqueous ENT-03S solution without cyclodextrin after subcutaneous injection; type: in vivo, rat; conditions: 2 mg/ml, 10 mg/kg SC, male SD rats
# Procedure: The benefits provided by the aminosterol-cyclodextrin formulation disclosed herein can be appreciated by comparing the pharmacokinetics of an aqueous solution of ENT-03S in the absence of cyclodextrin at a concentration of ENT-03S of 2 mg/ml at […].
# (§1) The dose chosen was the maximum ENT-03S concentration that could be delivered to the rat without causing visible local tissue necrosis.
# The experiment was conducted in male Sprague-Dawley rats following the same protocol as above. The formulation was administered subcutaneously at a dose of 10 mg/kg. The data obtained are shown below in Tables 19 and 20 and FIG. 35.
# [3] = Subcutaneous injection into a human subject (local tolerability); type: in vivo
# Procedure: […] The contents of the syringe were injected subcutaneously in the abdominal area of a human subject creating a visible swelling.
# [4] = Visible local tissue necrosis on subcutaneous delivery to the rat; type: in vivo; conditions: aqueous solution in the absence of cyclodextrin, pH 74
# Text: as §1
# [5] = male, Sprague-Dawley, in vivo, sc, 10 mg/kg
# Procedure: An equal volume of rat bile samples (50 μL) were taken from different animals at different time points following administration of ENT-03S. 50 μL of matrix was mixed with 200 μL of methanol (containing 0.1% formic acid), vortexed for 100 seconds and then centrifuged at 16,000 g for 10 minutes at 4° C. to precipitate proteins. 100 μL of the supernatant was transferred to a new tube and the supernatant diluted with 100 μt, pure water, mixed well and analyzed using UPLC-MS/MS.
# The peak area percentages of parent drug and each metabolite were determined by semi-quantitative estimation using the extracted ion chromatogram peak areas of all detected drug-related material in the sample. Metabolites with percentage of peak area>10% are proposed as major metabolites of ENT-03S.
# Bile samples were obtained from male rats at various time points following a 10 mg/kg dose of ENT-03S via subcutaneous administration in bile dicut cannulated male SD rats as detailed in Table 10. The samples were transferred on dry ice and stored at −80° C. prior to use
# Study design: An equal volume of rat bile samples (50 μL) were taken from different animals at different time points following administration of ENT-03S in study No.: PII-DMPK-ETR-21-001. 50 μL of matrix was mixed with 200 μL of methanol (containing 0.1% formic acid), vortexed for 100 seconds and then centrifuged at 16,000 g for 10 minutes at 4° C. to precipitate proteins. 100 μL of the supernatant was transferred to a new tube and the supernatant diluted with 100 μL pure water, mixed well and analyzed using UPLC-MS/MS.
# Sample preparation: For bile samples, an equal volume of samples (50 μL) are taken from different animals at various time points after the administration of each group of samples, and the same group of samples are mixed thoroughly.
# Data Analysis: UPLC-MS/MS was used for sample analysis, and was conducted using a DionexUltiMate 3000/Vanquish UHPLC system. For mass spectrometry (MS), all analysis was carried out with a Q-Exactive instrument (Thermo Fisher). A full MS scan was used to trigger the data dependent acquisition (DDA) of MS/MS scan spectra. Compound dependent parameters were optimized by ENT-03S. DDA settings were used to trigger acquisition of MS^2 spectra for ions whose intensity is in top 5 of all, with exclusion of impurity ions (m/z 149.02332, m/z 279.15909, m/z 391.28429 and m/z 445.12003), after 3 occurrences for 10 s. Dynamic exclusion settings: automatic exclusion of the ions which have been taken.
# Data Analysis: The analysis was carried out using a thermo Fisher Scientific Q Exactive instrument. Full MS scan was used to trigger the data dependent acquisition (DDA) of MS/MS scan spectra. Compound dependent parameters were optimized by ENT-03S. DDA settings were used to trigger acquisition of MS^2 spectra for ions whose intensity was in the top 5 of all, with exclusion of ions (m/z 149.02332, m/z 279 1 5909, m/z 391.28429 and m/z 445 12003), after 3 occurrences for 10 s. Data was acquired and processed using Xcalibur v4.1 software (Thermo Fisher Scientific) and Compound Discoverer 3.1 (Thermo Fisher Scientific) and Excel (Microsoft 2016).
# [6] = 0. 1l of aqueous ENT-03S 2 mg/ml, pH 74, no cyclodextrin
smiles,measurement,setting,value
"C[C@H](CCC[C@H](C)C(=O)O)[C@H]1CCC2C3C(CC[C@@]21C)[C@@]1(C)CC[C@H](NCCCNCCCCNCCCN)C[C@@H]1C[C@H]3O (stereo partly drawn) [ENT-03S, (2S,6R)-6-((3S,5R,7R,10S,13R,17R)-3-((3-((4-((3-aminopropyl)amino)butyl)amino)propyl)amino)-7-hydroxy-10,13-dimethylhexadecahydro-1 H-cyclopenta[a]phenanthren-17-yl)-2-methylheptanoic acid]",AUC(0-t),"[1]; individual rats, read-out: AUClast",716 µg·h/mL
same,AUC,"[1]; individual rats, read-out: AUClnf",767 µg·h/mL
same,Cmax,"[1]; individual rats, read-out: Cmax",31300 ng/mL
same,half-life,"[1]; individual rats, read-out: T1/2 (converted)",19.4 h
same,AUC(0-t),"[1]; mean, read-out: AUClast Mean",824 µg·h/mL
same,AUC,"[1]; mean, read-out: AUClnf Mean",920 µg·h/mL
same,Cmax,"[1]; mean, read-out: Cmax Mean",32400 ng/mL
same,half-life,"[1]; mean, read-out: T1/2 Mean (converted)",22.4 h
same,Concentration (ng/ml) Rat 1-3,"[2]; 0.25 h, individual rats, 10 mg/kg",1150 ng/mL and 702 ng/mL and 1930 ng/mL
same,Concentration (ng/ml) Rat 1-3,"[2]; 0.5 h, individual rats, 10 mg/kg",2300 ng/mL and 1490 ng/mL and 3220 ng/mL
same,Concentration (ng/ml) Rat 1-3,"[2]; 1 h, individual rats, 10 mg/kg",4910 ng/mL and 2590 ng/mL and 5570 ng/mL
same,Concentration (ng/ml) Rat 1-3,"[2]; 2 h, individual rats, 10 mg/kg",5900 ng/mL and 8620 ng/mL
same,Concentration (ng/ml) Rat 1-3,"[2]; 4 h, individual rats, 10 mg/kg",10800 ng/mL and 16100 ng/mL
same,Concentration (ng/ml) Rat 1-3,"[2]; 8 h, individual rats, 10 mg/kg",19600 ng/mL and 24800 ng/mL
same,Concentration (ng/ml) Rat 1-3,"[2]; 24 h, individual rats, 10 mg/kg",40000 ng/mL and 54300 ng/mL
same,AUClast,"[2]; individual rats, 10 mg/kg",559.927 µg·h/mL and 749.498 µg·h/mL
same,AUClast/D,"[2]; individual rats, 10 mg/kg",67500 kg·ng·h/mL/mg and 56000 kg·ng·h/mL/mg and 75000 kg·ng·h/mL/mg
same,Cmax,"[2]; individual rats, 10 mg/kg",40000 ng/mL and 54300 ng/mL
same,AUClast/D Mean,[2]; mean,66200 kg·ng·h/mL/mg
same,concentration at 0.25 h,"[2]; male, Sprague-Dawley, rat, plasma, sc, 10 mg/kg, 0.25 h, mean",1260 ng/mL
same,concentration at 0.5 h,"[2]; male, Sprague-Dawley, rat, plasma, sc, 10 mg/kg, 0.5 h, mean",2340 ng/mL
same,concentration at 1 h,"[2]; male, Sprague-Dawley, rat, plasma, sc, 10 mg/kg, 1 h, mean",4360 ng/mL
same,concentration at 2 h,"[2]; male, Sprague-Dawley, rat, plasma, sc, 10 mg/kg, 2 h, individual rats, read-out: Concentration (ng/ml) Rat 1-3",8380 ng/mL
same,concentration at 2 h,"[2]; male, Sprague-Dawley, rat, plasma, sc, 10 mg/kg, 2 h, mean, read-out: Concentration Mean",7630 ng/mL
same,concentration at 4 h,"[2]; male, Sprague-Dawley, rat, plasma, sc, 10 mg/kg, 4 h, individual rats, read-out: Concentration (ng/ml) Rat 1-3",14100 ng/mL
same,concentration at 4 h,"[2]; male, Sprague-Dawley, rat, plasma, sc, 10 mg/kg, 4 h, mean, read-out: Concentration Mean",13700 ng/mL
same,concentration at 8 h,"[2]; male, Sprague-Dawley, rat, plasma, sc, 10 mg/kg, 8 h, individual rats, read-out: Concentration (ng/ml) Rat 1-3",26900 ng/mL
same,concentration at 8 h,"[2]; male, Sprague-Dawley, rat, plasma, sc, 10 mg/kg, 8 h, mean, read-out: Concentration Mean",23800 ng/mL
same,concentration at 24 h,"[2]; male, Sprague-Dawley, rat, plasma, sc, 10 mg/kg, 24 h, individual rats, read-out: Concentration (ng/ml) Rat 1-3",43300 ng/mL
same,concentration at 24 h,"[2]; male, Sprague-Dawley, rat, plasma, sc, 10 mg/kg, 24 h, mean, read-out: Concentration Mean",45900 ng/mL
same,Tmax,"[2]; male, Sprague-Dawley, rat, plasma, sc, 10 mg/kg, individual rats",24 h
same,AUC(0-t),"[2]; male, Sprague-Dawley, rat, plasma, sc, 10 mg/kg, individual rats, read-out: AUClast",675 µg·h/mL
same,Cmax,"[2]; male, Sprague-Dawley, rat, plasma, sc, 10 mg/kg, individual rats, read-out: Cmax",43300 ng/mL
same,AUC(0-t),"[2]; male, Sprague-Dawley, rat, plasma, sc, 10 mg/kg, mean, read-out: AUClast Mean",662 µg·h/mL
same,Cmax,"[2]; male, Sprague-Dawley, rat, plasma, sc, 10 mg/kg, mean, read-out: Cmax Mean",45900 ng/mL
same,"local swelling, redness, and warmth",[3]; [6],lasted for several days
same,pain on injection,[3]; [6],severe pain within seconds that persisted for several hours
same,disappearance of swelling at injection site,"[3]; 1 ml of Example 4 formulation (ENT-03S 50 mg/ml, 25% 2-hydroxypropyl β-cyclodextrin), abdominal area","Over the course of an hour, the swelling disappeared"
same,sensation on subcutaneous injection,"[3]; 1 ml of Example 4 formulation (ENT-03S 50 mg/ml, 25% 2-hydroxypropyl β-cyclodextrin, phosphate, pH 7.4-7.6), abdominal area","mild stinging sensation was noted, which disappeared within a few minutes"
same,maximum ENT-03S concentration that could be delivered to the rat without causing visible local tissue necrosis,[4],2 mg/mL
same,Metabolite peak area Rat Bile,[5],1.70E+07
same,Metabolite peak area percentages Rat Bile,[5],13.77%
